# Laboratory results from patent publication US20040014738A1 (priority 2000, published 2004).
# Experiments:
# [1] = system: stem cells from umbilical cord blood
# Description: Stem cells were isolated from fresh umbilical cord blood using hydroxy ethylstarch (HES) sedimentation (Perutelli P. et al, Vox Sang. 76(4) pp 237-40 (1999); Adorno G. et al, Clin. Lab. Haematol. 20(6) pp 341-3 (1998)). The resulting solution contained 20*10^6 cells/ml, as determined using an automatic cell counter (Sysmex K1000, TOA Medical Electronics, Kobe, Japan).
# Stock solutions of Pseudomonas aeruginosa were added to the stem cell solution such that the volume of the spike was <10% of the total volume of the solution, and the number of bacteria was about 10^5/ml. A sensitizer, monophenyl-tri(N-methyl-4-pyridyl)porphyrin chloride (TriP(4), Mid-Century, Posen, Ill. USA), was added to a final concentration of 25 μM. The suspension were thoroughly mixed and divided into 3-ml aliquots in polystyrene culture dishes with a diameter of 6 cm (Greiner, Alphen a/d Rijn, the Netherlands), and agitated at room temperature on a horizontal reciprocal shaker (60 cycles/min, GFL, Burgwedel, Germany) for 5 min. in the dark. […] The irradiance at the cell layer was 35 mW/cm^2, as measured with an IL1400A photometer equipped with a SEL033 detector (International Light, Newburyport, Mass. USA). The following parameters were measured:
# Influence of the treatment on stem cell differentiation (as measured by cfu-e, bfu-e, cfu-m, cfu-gm, and cfu-gem). […]
# [2] = system: CD34-positive cells (stem cells); assay: Viability of the stem cells after photodynamic treatment; assay type: cell-based; settings: 25 μM sensitizer, illumination 1 hour, vs control (no illumination, no sensitizer) (FIG. 2)
# Description: (§1) The following parameters were measured:
# Viability of the stem cells.
# Pseudomonas aeruginosa = assay: Photodynamic inactivation of Pseudomonas aeruginosa in stem cell-containing solution; assay type: cell-based; settings: 25 μM sensitizer, light >600 nm, 35 mW/cm^2, about 10^5 bacteria/ml in stem cell solution (FIG. 1)
# Description: Photodynamic Treatment of Stem Cell-Containing Solution Contaminated with Pseudomonas
# as §1
# Inactivation of P. aeruginosa; and […]
compound,measurement,setting,value
"C[n+]1ccc(-c2c3nc(c(-c4cc[n+](C)cc4)c4ccc([nH]4)c(-c4cc[n+](C)cc4)c4nc(c(-c5ccccc5)c5ccc2[nH]5)C=C4)C=C3)cc1.[Cl-].[Cl-].[Cl-] [TriP(4), monophenyl-tri(N-methyl-4-pyridyl)porphyrin chloride]","CFU-Mk, PDT (60′)",[1],38
same,viability of CD34-positive cells (stem cells),[2],remains within the error margin for the control experiment
same,Inactivation of P. aeruginosa,Pseudomonas aeruginosa,effectively killed
